The assay addresses Envelope glycoprotein gp160 (Human immunodeficiency virus 1, UniProt Q6QLK5). Description: cell-free HIV fusion peptide-binding blockers – biochemical, uHTS, fluorescence dequenching, […] (AID 1986).

Active and inactive are the calls of the source. No stated cut-off is given here; in the data, actives have a measured IC50 and inactives only a lower limit.

Chain of Envelope glycoprotein gp160 (Q6QLK5 whole entry, the tested form may be a part): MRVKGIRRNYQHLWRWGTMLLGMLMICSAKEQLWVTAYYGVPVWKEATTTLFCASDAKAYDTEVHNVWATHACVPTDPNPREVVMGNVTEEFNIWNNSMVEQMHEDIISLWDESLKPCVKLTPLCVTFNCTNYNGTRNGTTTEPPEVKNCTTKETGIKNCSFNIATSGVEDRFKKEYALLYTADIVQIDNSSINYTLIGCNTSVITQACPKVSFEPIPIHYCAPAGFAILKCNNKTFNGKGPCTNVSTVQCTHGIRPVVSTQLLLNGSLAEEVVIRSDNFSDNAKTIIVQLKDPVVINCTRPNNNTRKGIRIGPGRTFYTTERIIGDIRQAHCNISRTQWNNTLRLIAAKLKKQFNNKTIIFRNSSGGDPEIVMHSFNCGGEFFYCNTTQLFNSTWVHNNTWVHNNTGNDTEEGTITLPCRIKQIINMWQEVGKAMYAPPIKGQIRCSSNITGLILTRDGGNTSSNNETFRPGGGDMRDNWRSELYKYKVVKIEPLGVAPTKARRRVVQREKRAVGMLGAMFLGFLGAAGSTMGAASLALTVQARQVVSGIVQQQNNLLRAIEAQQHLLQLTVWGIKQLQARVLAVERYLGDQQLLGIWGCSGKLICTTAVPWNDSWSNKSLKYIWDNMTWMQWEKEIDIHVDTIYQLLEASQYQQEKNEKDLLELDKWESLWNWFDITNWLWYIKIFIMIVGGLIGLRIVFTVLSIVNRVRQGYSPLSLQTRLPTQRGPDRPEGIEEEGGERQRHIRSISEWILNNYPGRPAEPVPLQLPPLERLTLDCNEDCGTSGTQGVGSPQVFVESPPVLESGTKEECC

In general, IC50 refers to the concentration needed to halve the response being measured. As for `O=C(Nc1cccc(C(F)(F)F)c1)c1cccc(NS(=O)(=O)c2ccc(O)c(C(=O)O)c2)c1`, the IC50 is 8.83 µM (active).
For the compound `COC(=O)c1sc(-c2ccc(C(C)(C)C)cc2)cc1NC(=O)COCC(=O)O`, the IC50 is 20.9 µM (active).

(Values after ChEMBL document CHEMBL1201862, “PubChem BioAssay data set” (2004).)
